What was measured:
[1] = target: Epidermal growth factor receptor (Homo sapiens) (UniProt P00533); conditions: MCF7, at 10 µM
Description: Inhibition of EGFR in human MCF7 cells assessed as reduction in EGFR phosphorylation at 10 uM incubated for 48 hrs by Western blot analysis

[2] = system: A549; experiment: Antiproliferative activity against human A549 cells assessed as growth inhibition at 1 uM incubated for 24 hrs by MTT assay (reference value: 0%); type: functional; conditions: A549, 24 h, read-out: GI
[3] = system: MCF7; experiment: Antiproliferative activity against human MCF7 cells assessed as reduction in cell growth incubated for 24 hrs by MTT assay; type: functional, cell-based; conditions: MCF7, 24 h
[4] = system: MCF7; experiment: Antiproliferative activity against human MCF7 cells assessed as growth inhibition at 1 uM incubated for 24 hrs by MTT assay (reference value: 0%); type: functional; conditions: MCF7, 24 h, read-out: GI
[5] = system: A549; experiment: Antiproliferative activity against human A549 cells assessed as growth inhibition at 10 uM incubated for 24 hrs by MTT assay (reference value: 0%); type: functional; conditions: A549, 24 h, read-out: GI
[6] = system: A549; experiment: Antiproliferative activity against human A549 cells assessed as growth inhibition at 0.1 uM incubated for 24 hrs by MTT assay (reference value: 0%); type: functional; conditions: A549, 24 h, read-out: GI
[7] = system: MCF7; experiment: Antiproliferative activity against human MCF7 cells assessed as growth inhibition at 10 uM incubated for 24 hrs by MTT assay (reference value: 0%); type: functional; conditions: MCF7, 24 h, read-out: GI
[8] = system: MCF7; experiment: Antiproliferative activity against human MCF7 cells assessed as growth inhibition at 0.1 uM incubated for 24 hrs by MTT assay (reference value: 0%); type: functional; conditions: MCF7, 24 h, read-out: GI
[9] = Selectivity index, ratio of cytotoxic IC50 for human MCF10A cells to antiproliferative IC50 for human MCF7 cells; type: toxicity; conditions: MCF10A cells and MCF7 cells, read-out: Ratio IC50
[10] = system: MCF-10A; experiment: Cytotoxicity against human MCF10A cells assessed as reduction in cell viability incubated for 24 hrs by MTT assay; type: ADME, cell-based
[11] = system: A549; experiment: Antiproliferative activity against human A549 cells assessed as reduction in cell growth incubated for 24 hrs by MTT assay; type: functional, cell-based; conditions: A549, 24 h

Chain of Epidermal growth factor receptor (Homo sapiens) (P00533 whole entry): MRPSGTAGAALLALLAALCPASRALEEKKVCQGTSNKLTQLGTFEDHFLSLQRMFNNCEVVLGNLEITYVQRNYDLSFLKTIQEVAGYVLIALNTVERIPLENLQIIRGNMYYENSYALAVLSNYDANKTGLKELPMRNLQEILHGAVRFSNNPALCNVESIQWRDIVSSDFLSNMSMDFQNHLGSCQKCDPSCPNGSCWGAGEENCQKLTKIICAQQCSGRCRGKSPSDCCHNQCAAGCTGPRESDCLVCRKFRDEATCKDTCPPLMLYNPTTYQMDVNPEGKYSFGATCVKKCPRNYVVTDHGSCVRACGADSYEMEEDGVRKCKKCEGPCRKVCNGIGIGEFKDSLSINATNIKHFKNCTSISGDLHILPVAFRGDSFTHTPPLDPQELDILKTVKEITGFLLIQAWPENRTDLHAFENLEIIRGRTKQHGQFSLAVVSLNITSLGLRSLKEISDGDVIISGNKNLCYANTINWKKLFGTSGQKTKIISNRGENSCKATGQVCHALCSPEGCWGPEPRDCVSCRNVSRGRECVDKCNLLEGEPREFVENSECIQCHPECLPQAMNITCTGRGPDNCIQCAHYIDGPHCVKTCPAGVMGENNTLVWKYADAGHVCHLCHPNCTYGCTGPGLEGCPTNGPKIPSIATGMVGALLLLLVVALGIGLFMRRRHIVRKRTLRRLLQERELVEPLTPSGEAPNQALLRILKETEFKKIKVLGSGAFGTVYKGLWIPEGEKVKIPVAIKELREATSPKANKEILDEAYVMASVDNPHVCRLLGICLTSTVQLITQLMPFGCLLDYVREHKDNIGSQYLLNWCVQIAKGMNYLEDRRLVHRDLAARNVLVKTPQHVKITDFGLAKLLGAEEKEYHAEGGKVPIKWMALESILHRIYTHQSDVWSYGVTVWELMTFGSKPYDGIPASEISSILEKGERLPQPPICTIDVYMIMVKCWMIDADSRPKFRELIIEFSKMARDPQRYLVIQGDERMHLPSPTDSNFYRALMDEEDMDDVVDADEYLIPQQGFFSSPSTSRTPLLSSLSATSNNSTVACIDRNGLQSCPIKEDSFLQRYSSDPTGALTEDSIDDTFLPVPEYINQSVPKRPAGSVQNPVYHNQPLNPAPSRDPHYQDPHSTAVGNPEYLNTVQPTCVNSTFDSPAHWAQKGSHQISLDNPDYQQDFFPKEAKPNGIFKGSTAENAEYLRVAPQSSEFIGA

SMILES	inhibition [1]	IC50 [3]	IC50 [11]	inhibition of growth at 1 µM [2]	inhibition of growth at 1 µM [4]	inhibition of growth at 10 µM [5]	inhibition of growth at 0.1 µM [6]	inhibition of growth at 10 µM [7]	inhibition of growth at 0.1 µM [8]	selectivity ratio [9]	IC50 [10]
O=C(Cn1cc(COc2ccccc2OCc2cn(CC(=O)Nc3ccc([N+](=O)[O-])cc3)nn2)nn1)Nc1ccc([N+](=O)[O-])cc1	–	–	–	10.7%	15%	11.8%	5.9%	12.7%	14.2%	–	–
COc1ccc(NC(=O)Cn2cc(COc3ccccc3OCc3cn(CC(=O)Nc4ccc(OC)cc4)nn3)nn2)cc1	88.3%	4.18 µM	–	6.56%	24%	15.4%	5.57%	96%	18.4%	8	33.4 µM
COc1ccc(NC(=O)Cn2cc(COc3cccc(OCc4cn(CC(=O)Nc5ccc(OC)cc5)nn4)c3)nn2)cc1	–	–	2.34 µM	42.8%	11.1%	94.5%	7.26%	33.3%	11.9%	–	–
O=C(Cn1cc(COc2ccccc2OCc2cn(CC(=O)Nc3ccccc3)nn2)nn1)Nc1ccccc1	–	–	–	6.8%	12.1%	44.3%	0%	12.9%	11.3%	–	–
O=C(Cn1cc(COc2cccc(OCc3cn(CC(=O)Nc4ccccc4)nn3)c2)nn1)Nc1ccccc1	–	–	7.05 µM	10.8%	13.8%	69.2%	11.4%	22.1%	14.5%	–	–

Further lines, with some results ahead:

inhibition [1]	IC50 [3]	IC50 [11]	SMILES	inhibition of growth at 1 µM [2]	inhibition of growth at 1 µM [4]	inhibition of growth at 10 µM [5]	inhibition of growth at 0.1 µM [6]	inhibition of growth at 10 µM [7]	inhibition of growth at 0.1 µM [8]	selectivity ratio [9]	IC50 [10]
32.6%	6.13 µM	–	O=C(Cn1cc(COc2cccc(OCc3cn(CC(=O)Nc4ccc(Cl)cc4)nn3)c2)nn1)Nc1ccc(Cl)cc1	-0.17%	31.7%	3.36%	1.16%	64%	16.2%	–	–
72.7%	2.8 µM	5.61 µM	O=C(Cn1cc(COc2ccccc2OCc2cn(CC(=O)Nc3ccc(Cl)cc3)nn2)nn1)Nc1ccc(Cl)cc1	25.4%	42.9%	73.5%	1.89%	79.9%	39%	5	14 µM
28.2%	6.7 µM	5.56 µM	Cc1ccc(NC(=O)Cn2cc(COc3ccccc3OCc3cn(CC(=O)Nc4ccc(C)cc4)nn3)nn2)cc1	12.8%	25.7%	86.6%	8.92%	63.8%	25.4%	–	–
76.9%	6.01 µM	–	Cc1ccc(NC(=O)Cn2cc(COc3cccc(OCc4cn(CC(=O)Nc5ccc(C)cc5)nn4)c3)nn2)cc1	7.51%	9.47%	34.1%	0%	82.6%	5.16%	–	–
–	–	2.22 µM	O=C(Cn1cc(COc2cccc(OCc3cn(CC(=O)Nc4ccc([N+](=O)[O-])cc4)nn3)c2)nn1)Nc1ccc([N+](=O)[O-])cc1	42.4%	4.58%	98.6%	25.5%	5.44%	4.96%	–	–

— ChEMBL document CHEMBL4396938, “New amide linked dimeric 1,2,3-triazoles bearing aryloxy scaffolds as a potent antiproliferative agents and EGFR tyrosine kinase phosphorylation inhibitors” (Bioorg Med Chem Lett, 2019)
